Assay results published in patent publication US4465681A, “Bis-(aminoalkoxy)-phenyl, pyridyl ketones, and use as immunological agents” (Yoshitomi Pharmaceutical Industries Ltd., priority 1980, dated 1984).
“Also recorded” adds a separate entry of the source. Structures can show the parent of a compound that is named as a salt.

Key:
[1] = system: rosette-forming cells (RFC) in the spleen and/or thymus; assay: Activity for suppressing immune response in BALB/C strain mice: rosette-forming cells (RFC); type: in vivo, female BALB/C strain mice; details: 30 mg/kg orally, 4 days after sensitization; for No. of RFC, Spleen: control 135 ± 27 (for A), 172 ± 32 (for B), B **p < 0.01 vs control
Protocol: (§1) Female BALB/C strain mice (6 weeks old) were used by dividing into groups of 6 animals. The sensitization was made by intraperitoneal injection of antigen: 5×10^8 sheep red blood cells. Each mouse was orally administered with the test compound on the same day and the next day of the sensitization. Four days after the sensitization, the number of plaque-forming cells (PFC) in the spleen, and the number of rosette-forming cells (RFC) in the spleen and/or thymus were measured in a usual manner.

[2] = system: plaque-forming cells (PFC) in the spleen; assay: Activity for suppressing immune response in BALB/C strain mice: plaque-forming cells (PFC); type: in vivo, female BALB/C strain mice; details: 30 mg/kg orally, same and next day of sensitization; 4 days after sensitization; control 17.4 ± 2.3 (for A), 9.5 ± 1.0 (for B); **p < 0.01 vs control
Protocol: as §1

[3] = system: rosette-forming cells (RFC) in the spleen and/or thymus; assay: Activity for potentiating immune response in C57BL/6 strain mice: rosette-forming cells (RFC); type: in vivo, female C57BL/6 strain mice; details: 30 mg/kg orally, 6 days after sensitization; for No. of RFC, Spleen: control 75 ± 17 (for A), 55 ± 11 (for B), **p < 0.01 vs control
Protocol: Female C57BL/6 strain mice (6 weeks old) were used dividing into groups of 6 animals. The sensitization was made by intraperitoneal injection of antigen: 5×10^8 sheep red blood cells. Each mouse was orally administered with the test compound on the same day and next day of the sensitization. Six days after the sensitization, the number of rosette-forming cells (RFC) in the spleen and/or thymus was measured in a usual manner.

adjuvant arthritis = assay: Anti-adjuvant arthritis activity in rats; type: in vivo, male Lewis rats
Protocol: (A model disease of rheumatoid arthritis) Male Lewis rats (8-9 weeks old) were used. Adjuvant arthritis was caused by the method described by B. B. Newbould in "Brit. J. Pharmacol.", 21, 127 (1963). Twenty-one days after the subcutaneous injection of a suspension of killed tubercle bacillus in Freund's adjuvant into the tail of the rats, the severity of arthritis was assayed as the hindleg volume. Each group of the rat was orally administered with the test compound once a day.

peritoneal macrophages = assay: Activation of peritoneal macrophage in mice (phagocytosis of yeast); type: cell-based, male dd mice; details: 0 μM control 33.9 ± 0.8
Protocol: Peritoneal macrophages were obtained from male dd mice (8 weeks old). After washing macrophages, the cells were adjusted to 5×10^6 macrophages/ml in Hanks' solution. A mixture containing 100 μl of the macrophage suspension, 50 μl of mice serum and 10 μl of the test compound was preincubated at 37° C. for 10 minutes, and then 50 μl of yeast cells (2.5×10^8 /ml) was added thereto. After further incubation of the mixture at 37° C. for 20 minutes, the number of macrophages phagocytosing yeast was counted in a usual manner.

male dd mice = assay: Acute toxicity; type: in vivo; details: p.o.; printed beside LD50 >1000 mg/kg
Protocol: (§2) Acute toxicity was determined using male dd mice (8 weeks old).

Acute toxicity = type: in vivo; details: mouse, in vivo
Protocol: as §2

With `CN(C)CCOc1ccc(C(=O)c2cccnc2OCCN(C)C)cc1` [Test compound A, 2,4'-bis(2-dimethylaminoethoxy)-3-benzoylpyridine dihydrochloride hemihydrate] the “No. of RFC, Thymus” value ([1]; control 9.5 ± 1.0, **p < 0.01 vs control) was 1.2 ± 0.4 × 10^4, the “No. of RFC, Spleen” value [1] was 126 ± 24 × 10^4 and the “No. of PFC, Spleen” value [2] was 9.0 ± 1.4 × 10^4. The “No. of RFC, Thymus” value ([3]; control 2.8 ± 0.5, **p < 0.01 vs control) was 7.4 ± 1.1 × 10^4, the “No. of RFC, Spleen” value [3] was 214 ± 46 × 10^4 and the “Volume of Hindleg” value (adjuvant arthritis; 50 mg/kg orally once a day, twenty-one days after adjuvant injection, control 2.40 ± 0.20, **p < 0.01 vs control) was 1.17 ± 0.29 mL. The “anti-adjuvant arthritis activity (in words)” value (adjuvant arthritis; dose of 50 mg/kg, dihydrochloride hemihydrate, 50 mg/kg) was “significant inhibition of adjuvant arthritis; also recorded: has anti-arthritis activity”, the Phagocytosis (peritoneal macrophages; 10 μM) was 35.5 ± 1.9% and the Phagocytosis (peritoneal macrophages; 30 μM, **p < 0.01 vs control) was 46.5 ± 2.7%. For the same molecule, the Phagocytosis (peritoneal macrophages; 100 μM, **p < 0.01 vs control) was 54.3 ± 3.1%, the dead/total animals (male dd mice) was 1/6 and the LD50 (Acute toxicity; ip) was 300 mg/kg. The LD50 (Acute toxicity; po) was > 1000 mg/kg.
With `CC(CN(C)C)Oc1ccc(C(=O)c2cccnc2OC(C)CN(C)C)cc1` (stereo not shown) [Test compound B, 2,4'-bis(1-methyl-2-dimethylaminoethoxy)-3-benzoylpyridine dioxalate] the “No. of RFC, Spleen” value [1] was 88 ± 10 × 10^4, the “No. of PFC, Spleen” value [2] was 4.6 ± 0.8 × 10^4 and the “No. of RFC, Spleen” value [3] was 149 ± 22 × 10^4. It also gave a Phagocytosis (peritoneal macrophages; 10 μM) of 40.8 ± 2.7%, a Phagocytosis (peritoneal macrophages; 30 μM, **p < 0.01 vs control) of 49.6 ± 2.1% and a Phagocytosis (peritoneal macrophages; 100 μM, **p < 0.01 vs control) of 63.4 ± 6.7%. For the same molecule, the dead/total animals (male dd mice) was 0/5, the LD50 (Acute toxicity; ip) was 250 mg/kg and the LD50 (Acute toxicity; po) was > 1000 mg/kg.
